Test results published in paper PMC9502896 (Nutrients, 2022).
Several values for one entry are separate records, joined by “and”; a condition that tells them apart may be missing. Equal entries are not always repeated. Where two headings read alike, the source gives them in different places.

Columns and labels:
MAO-B = conditions: cited from earlier work
MAO-A = conditions: cited from earlier work
hMAO-B = biological target: T1, hMAO-B (Homo sapiens, UniProt P27338); test: In vitro hMAO inhibitory assay (luminometric), MAO-B; assay type: biochemical; conditions: 16 µM substrate, 0.5 µg enzyme, 25 °C, 1 h; read-out: hMAO-B IC50 (Mean ± SD)
T1 construct: purchased Sigma-Aldrich
T1 sequence (P27338 1-520): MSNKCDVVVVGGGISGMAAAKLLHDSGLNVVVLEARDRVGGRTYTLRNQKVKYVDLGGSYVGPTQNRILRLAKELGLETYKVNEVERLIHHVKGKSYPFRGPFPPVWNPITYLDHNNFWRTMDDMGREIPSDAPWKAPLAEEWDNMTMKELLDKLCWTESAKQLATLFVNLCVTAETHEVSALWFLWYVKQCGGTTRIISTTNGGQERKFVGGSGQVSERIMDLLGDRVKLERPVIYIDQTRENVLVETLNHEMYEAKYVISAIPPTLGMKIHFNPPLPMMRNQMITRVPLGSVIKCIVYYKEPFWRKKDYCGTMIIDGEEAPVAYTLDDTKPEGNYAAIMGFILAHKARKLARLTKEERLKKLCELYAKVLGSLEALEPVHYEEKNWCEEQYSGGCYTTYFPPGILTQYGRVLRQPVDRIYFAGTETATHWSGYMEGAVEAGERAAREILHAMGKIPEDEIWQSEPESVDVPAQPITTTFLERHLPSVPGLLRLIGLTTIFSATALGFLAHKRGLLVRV
Protocol: (§1) The inhibitory potential of the P. lobata-derived phytochemicals against MAO was evaluated through the luminometric method. Various doses of phytoestrogens in 0.1 M HEPES buffer (pH 7.5) with 5% 1,2,3-propanetriol for MAO-A and 5% 1,2,3-propanetriol and 10% dimethyl sulfoxide for MAO-B were mixed with the substrate (160 µM for MAO-A and 16 µM for MAO-B) and 0.5 µg of the enzyme and incubated at 25 °C. After 1 h incubation, reconstituted luciferin-detection reagent was added to the reaction mixture and incubated at 25 °C for 20 min. After that, luminescent signals were monitored using a microplate reader (Biotek, Winooski, VT, USA).
(§2) In addition, since factors such as organic solvents, metal ions (such as Cu^2+, Cd^2+, and Al^3+), pH, and temperature affect MAO activity, the assay was conducted in a well-controlled laboratory environment. The optimal conditions for the enzymatic reaction, including reaction time, temperature, pH, and the concentrations of the enzyme and substrate, were established based on the previous study. All the test samples were diluted in a reaction buffer containing 10% or less DMSO, and the solvent-control group was tested together for each assay to minimize false-positive/false-negative effects.

mouse astrocytes = test system: mouse astrocytes; parameters: method as in PMID 21708076; conditions: nanomolar concentration; Aβ-induced cytotoxicity and inflammatory cytokine levels; cited from earlier work
hMAO-A [1] = biological target: T2, hMAO-A (Homo sapiens, UniProt P21397); test: In vitro hMAO inhibitory assay (luminometric), MAO-A; assay type: biochemical
T2 construct: purchased Sigma-Aldrich
T2 sequence (P21397 1-527): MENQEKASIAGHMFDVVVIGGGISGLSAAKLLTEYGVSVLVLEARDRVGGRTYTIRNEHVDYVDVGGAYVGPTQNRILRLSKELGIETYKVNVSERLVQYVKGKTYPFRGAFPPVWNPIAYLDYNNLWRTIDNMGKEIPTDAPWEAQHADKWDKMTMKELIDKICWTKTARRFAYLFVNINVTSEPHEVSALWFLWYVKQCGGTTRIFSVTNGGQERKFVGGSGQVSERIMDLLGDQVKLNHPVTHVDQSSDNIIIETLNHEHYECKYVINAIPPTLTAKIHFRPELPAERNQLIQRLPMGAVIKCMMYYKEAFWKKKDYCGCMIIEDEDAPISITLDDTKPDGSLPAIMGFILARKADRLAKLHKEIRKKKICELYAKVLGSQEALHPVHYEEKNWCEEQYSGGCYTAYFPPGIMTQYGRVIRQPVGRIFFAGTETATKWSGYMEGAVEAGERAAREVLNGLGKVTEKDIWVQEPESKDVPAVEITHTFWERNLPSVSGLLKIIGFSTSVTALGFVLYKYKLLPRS
Protocol: as §1, §2

β-secretase = test system: β-secretase; parameters: method as in PMID 29597336; conditions: cited from earlier work
Aβ25–35 = biological target: T3, Aβ25–35 (Homo sapiens, UniProt P05067); test: Self Aβ25–35 aggregation assay (thioflavin-T fluorescence); assay type: biochemical; conditions: for decrease of Aβ25–35 self-aggregation compared to control: 100 μM compound, 24 h of incubation
T3 construct: amyloid β peptide 25–35 (Aβ25–35); purchased Sigma-Aldrich
Protocol: The Aβ25–35 self-aggregation assay was performed following the method described by Naldi et al.. First, peptide was pretreated with HFIP for 1 day at 22 °C to obtain non-amyloidogenic conformation. […] After incubation, the reaction mixture was supplemented with 0.025 mM thioflavin-T in 50 mM glycine–NaOH buffer (pH 8.5). The fluorescence emission was monitored at 490 nm with excitation at 446 nm using the Gemini XPS (Molecular Devices, Sunnyvale, CA, USA).

hMAO-A [2] = biological target: T2, hMAO-A; test: Kinetic assay for hMAO-A (Lineweaver-Burk and secondary plots); assay type: biochemical
Protocol: The experimental method was the same as that used for the hMAO inhibitory assay; 0.5 µg of enzyme, 40–160 µM substrate and 0, 2.5, 10, and 20 µM coumestrol were used. A Lineweaver–Burk plot (LB plot) was generated using SigmaPlot 12.0 based on the results of the kinetic assay and secondary plots of the LB plot (LB-2nd plot) were generated using the exploratory EK macro module (Table S1).
The equation for the LB plot is as follows:(1) […]

[3] = 160 µM substrate, 0.5 µg enzyme, 25 °C, 1 h, read-out: hMAO-A IC50 (Mean ± SD)
[4] = Screening active compound, 100 μM
[5] = substrate 40 μM, coumestrol 2.5 μM
[6] = substrate 40 μM, coumestrol 10 μM
[7] = substrate 40 μM, coumestrol 20 μM
[8] = substrate 80 μM, coumestrol 2.5 μM
[9] = substrate 80 μM, coumestrol 10 μM
[10] = substrate 80 μM, coumestrol 20 μM
[11] = substrate 160 μM, coumestrol 2.5 μM
[12] = substrate 160 μM, coumestrol 10 μM
[13] = substrate 160 μM, coumestrol 20 μM

COc1c(CC=C(C)C)c(O)cc2oc(=O)c3c4ccc(O)cc4oc3c12 [glycyrol]
IC50 (MAO-B; read-out: IC50 against MAO-B): 29.5 µM | IC50 (MAO-A; read-out: activity against MAO-A (no activity below)): > 40 µM

O=c1oc2cc(O)ccc2c2oc3cc(O)ccc3c12 [Coumestrol]
IC50 (hMAO-B): 77.8 ± 2.1 µM | neuroprotective effects in mouse astrocytes (mouse astrocytes): neuroprotective effects | IC50 (hMAO-A [1]; [3]): 1.99 ± 0.68 µM | in vitro inhibitory effect against β-secretase (β-secretase): in vitro inhibitory effect | decrease of Aβ25–35 self-aggregation compared to control (Aβ25–35): 76.14% | Fluorescence (Emission = 490 nm / Excitation = 446 nm), replicates 1-3 (Aβ25–35; Dose-dependent curves, 5 μM): 874.9012 and 872.4322 and 899.9266 | Fluorescence (Emission = 490 nm / Excitation = 446 nm), replicates 1-3 (Aβ25–35; Dose-dependent curves, 10 μM): 820.955 and 835.446 and 846.767 | Fluorescence (Emission = 490 nm / Excitation = 446 nm), replicates 1-3 (Aβ25–35; Dose-dependent curves, 20 μM): 725.8814 and 709.3678 and 704.8239 | Fluorescence (Emission = 490 nm / Excitation = 446 nm), replicates 1-3 (Aβ25–35; Dose-dependent curves, 50 μM): 578.864 and 549.001 and 576.214 | Fluorescence (Emission = 490 nm / Excitation = 446 nm), replicates 1-3 (Aβ25–35; Dose-dependent curves, 100 μM): 484.285 and 460.697 and 486.519 | Fluorescence (Emission = 490 nm / Excitation = 446 nm), replicates 1-3 (Aβ25–35; [4]): 420.995 and 408.908 and 418.89 | IC50 (Aβ25–35; thioflavin-T assay, read-out: IC50 for inhibition of Aβ25–35 self-aggregation): 37.4 ± 1.7 µM | Inhibition Mode (hMAO-A [2]; 0.5 µg MAO-A, 40–160 µM substrate, 25 °C): Competitive | Inhibition Mode (hMAO-A [2]; 0.5 µg MAO-A, 40–160 µM substrate, 25 °C, listed as coumestrol): competitive inhibitor | Ki (hMAO-A [2]; 0.5 µg MAO-A, 40–160 µM substrate, 25 °C, secondary plots, read-out: Inhibition Constant (Ki)): 1.32 µM | 1/V Mean (hMAO-A [2]; [5]): 0.000734 1/(RLU/60min) | RLU Mean (hMAO-A [2]; [5]): 81783.67 RLU | 1/V Mean (hMAO-A [2]; [6]): 0.001642 1/(RLU/60min) | RLU Mean (hMAO-A [2]; [6]): 36716 RLU | 1/V Mean (hMAO-A [2]; [7]): 0.002945 1/(RLU/60min) | RLU Mean (hMAO-A [2]; [7]): 20374 RLU | 1/V Mean (hMAO-A [2]; [8]): 0.000475 1/(RLU/60min) | RLU Mean (hMAO-A [2]; [8]): 126374 RLU | 1/V Mean (hMAO-A [2]; [9]): 0.000938 1/(RLU/60min) | RLU Mean (hMAO-A [2]; [9]): 64010.67 RLU | 1/V Mean (hMAO-A [2]; [10]): 0.001597 1/(RLU/60min) | RLU Mean (hMAO-A [2]; [10]): 37649 RLU | 1/V Mean (hMAO-A [2]; [11]): 0.000261 1/(RLU/60min) | RLU Mean (hMAO-A [2]; [11]): 229959.3 RLU | 1/V Mean (hMAO-A [2]; [12]): 0.000495 1/(RLU/60min) | RLU Mean (hMAO-A [2]; [12]): 121308.7 RLU | 1/V Mean (hMAO-A [2]; [13]): 0.000797 1/(RLU/60min) | RLU Mean (hMAO-A [2]; [13]): 75572 RLU

CC1OC(OCC2OC(Oc3c(-c4ccc(O)cc4)oc4cc(OC5OC(C)C(O)C(O)C5O)cc(O)c4c3=O)C(O)C(O)C2O)C(O)C(O)C1O (centres unmarked) [Robinin, kaempferol 3-O-robinoside-7-O-rhamnoside]
IC50 (hMAO-B): > 400 µM | IC50 (hMAO-A [1]; [3]): > 400 µM

CC1OC(OCC2OC(Oc3c(-c4ccc(O)cc4)oc4cc(O)cc(O)c4c3=O)C(O)C(O)C2O)C(O)C(O)C1O (centres unmarked) [Nicotiflorine]
IC50 (hMAO-B): > 400 µM | IC50 (hMAO-A [1]; [3]): > 400 µM

COc1cc(/C=C/C(=O)CC(=O)/C=C/c2ccc(O)c(OC)c2)ccc1O [Curcumin, curcumin, reference compound]
Fluorescence (Emission = 490 nm / Excitation = 446 nm), replicates 1-3 (Aβ25–35; Dose-dependent curves, 5 μM): 714.733 and 699.957 and 732.987 | Fluorescence (Emission = 490 nm / Excitation = 446 nm), replicates 1-3 (Aβ25–35; Dose-dependent curves, 10 μM): 659.3354 and 647.8281 and 645.7345 | Fluorescence (Emission = 490 nm / Excitation = 446 nm), replicates 1-3 (Aβ25–35; Dose-dependent curves, 20 μM): 508.323 and 494.704 and 529.05 | Fluorescence (Emission = 490 nm / Excitation = 446 nm), replicates 1-3 (Aβ25–35; Screening active compound, 20 μM): 446.557 and 456.907 and 436.435

CC(C)=CCc1cc2c(cc1O)oc(=O)c1c3ccc(O)cc3oc21 [psoralidin]
inhibitory effect against MAO-B (MAO-B): did not show a significant inhibitory effect | inhibitory effect against MAO-A (MAO-A): did not show a significant inhibitory effect

O=c1c(-c2ccc(O)cc2)coc2cc(O[C@@H]3O[C@H](CO)[C@@H](O)[C@H](O)[C@H]3O)cc(O)c12 [Genistin]
IC50 (hMAO-B): > 400 µM | IC50 (hMAO-A [1]; [3]): > 400 µM

O=c1c(-c2ccc(O)cc2)coc2cc(O)cc(O)c12 [Genistein]
decrease of Aβ25–35 self-aggregation compared to control (Aβ25–35): 34.90% | Fluorescence (Emission = 490 nm / Excitation = 446 nm), replicates 1-3 (Aβ25–35; [4]): 656.961 and 678.75 and 636.556

CC1OC(OCC2OC(Oc3c(-c4ccc(O)cc4)oc4cc(O)cc(O)c4c3=O)C(O)C(O)C2O)C(O)C(O)C1O (centres unmarked) [Kaempferol-3-O-robinobioside]
IC50 (hMAO-B): > 400 µM | IC50 (hMAO-A [1]; [3]): > 400 µM

C[C@@H]1O[C@@H](OC[C@H]2O[C@@H](Oc3c(-c4ccc(O)c(O)c4)oc4cc(O)cc(O)c4c3=O)[C@H](O)[C@@H](O)[C@@H]2O)[C@H](O)[C@H](O)[C@H]1O [Rutin]
IC50 (hMAO-B): > 400 µM | IC50 (hMAO-A [1]): 387 ± 4.63 µM | inhibitory activity against MAO-A (hMAO-A [1]): weak MAO-A inhibitory activity | decrease of Aβ25–35 self-aggregation compared to control (Aβ25–35): 49.31% | Fluorescence (Emission = 490 nm / Excitation = 446 nm), replicates 1-3 (Aβ25–35; [4]): 556.703 and 574.097 and 523.388

O=c1c(-c2ccc(O)cc2)coc2cc(O[C@@H]3O[C@H](CO)[C@@H](O)[C@H](O)[C@H]3O)ccc12 [Daidzin]
IC50 (hMAO-B): > 400 µM | IC50 (hMAO-A [1]): > 400 µM

CC1OC(OCC2OC(Oc3c(-c4ccc(O)c(O)c4)oc4cc(O)cc(O)c4c3=O)C(O)C(O)C2O)C(O)C(O)C1O (centres unmarked) [Quercetin-3-O-robinobioside]
IC50 (hMAO-B): > 400 µM | IC50 (hMAO-A [1]): > 400 µM

O=c1c(-c2ccc(O)cc2)coc2cc(O)ccc12 [Daidzein]
decrease of Aβ25–35 self-aggregation compared to control (Aβ25–35): 35.54% | Fluorescence (Emission = 490 nm / Excitation = 446 nm), replicates 1-3 (Aβ25–35; [4]): 752.714 and 744.841 and 739.542
